Test results: US12528837B2, “Aryl substituted polymyxin derivatives” (priority 2018, dated 2026)
Converted amounts (≈) assume the structure as drawn. Where two headings read alike, the source gives them in different places. Where a SMILES comes first, the peptide text is derived from it. Bridges are numbered along the chain shown (N, C = ends). [ ]: non-standard residue; d: D form. The star is where a group is joined. X21 = NC[C@H](CC(=O)*)c1cc(Cl)cc(Cl)c1; X3 = CC(C)c1cccc([C@@H](CN)CC(=O)*)c1; X9 = CC(C)c1cccc([C@H](CN)CC(=O)*)c1; X19 = NC[C@@H](CC(=O)*)c1cccc(Br)c1; X7 = NC[C@H](CC(=O)*)c1cccc(Cl)c1; dNle = CCCC[C@@H](N)C(=O)O; Dab = NCC[C@H](N)C(=O)O; Abu = CC[C@H](N)C(=O)O; Dap = NC[C@H](N)C(=O)O

Tests used:
HK-2 cells = test: In vitro renal cell toxicity assay (HK-2); format: cell-based
Protocol: The in vitro renal cell toxicity assay was performed according to the following protocol. […] Cells were seeded at 7,500 cells per well in 96-well plates and allowed to adhere overnight. […] Water and DMSO levels were kept constant at 5% and 0.5% respectively. The test compounds were incubated with cells for 24 h at 37° C. 5% CO2 in a humidified atmosphere. […] Media only background values were subtracted before the data was analysed using GraphPad Prism. Individual values were normalised to the vehicle control wells for each compound. Compound concentration values were plotted as log values to enable a dose-response curve to be fitted. The bottom of the curve was constrained to zero and IC50 values were determined. IC50 values are expressed relative to that for PMB in the same experiment. Where multiple determinations have been made, median values are presented.

[1] = Kidney drug level after subcutaneous dose in mouse; format: in vivo; conditions: mouse, in vivo
Protocol: Four hours after dosing the animals were euthanised and kidneys removed, trimmed of fat and connective tissue, weighed and immediately snap-frozen. After thawing at room temperature, pairs of kidneys from each animal were placed in 2 mL conical tubes containing pre-weighed ceria-stabilised zirconium oxide beads. […] After 10 min. centrifugation at 13,000 rpm and 6° C., 200 μl of the supernatants were transferred into glass inserts and analysed by LC-MS-MS.

E. coli CA58 = format: cell-based
Protocol: (§1) The inoculum was prepared by making a direct suspension of isolated colonies (selected from an 18-24 hour Mueller-Hinton agar plate) adjusted to the 0.5 McFarland standard. […] The assays were performed in duplicate. […] Several of the compounds were subjected to multiple tests, and where this is the case, the MIC presented is the median value obtained. The MIC values are quoted in μg/mL.

K. pneumoniae CA64 = format: cell-based
Protocol: as §1

P. aeruginosa CCUG 59347 = format: cell-based
Protocol: as §1

[2] = system: A. baumannii ATCC BAA-747; format: cell-based; conditions: ATCC BAA-747
Protocol: (§2) The inoculum was prepared by making a direct suspension of isolated colonies (selected from an 18-24 hour Mueller-Hinton agar plate) adjusted to the 0.5 McFarland standard. […] The assays were performed in duplicate. […] The MIC values are quoted in μg/mL.

A. baumannii NCTC 13424 = format: cell-based; conditions: NCTC 13424
Protocol: as §2

E. coli ATCC 25922 = format: cell-based; conditions: cation-adjusted Mueller-Hinton Broth, 18-20 h, 35° C.
Protocol: as §2

K. pneumoniae ATCC 13822 = format: cell-based; conditions: cation-adjusted Mueller-Hinton Broth, 18-20 h, 35° C.
Protocol: as §2

P. aeruginosa ATCC 27853 = format: cell-based
Protocol: as §2

[3] = cation-adjusted Mueller-Hinton Broth, 18-20 h, 35° C.

Structure (SMILES)	HK-2 rel to PMB (HK-2 cells)	4 hr kidney level/rel. cytotoxicity [1]	MIC E. coli CA58 (E. coli CA58; CA58) [µg/mL]	MIC K. pneumoniae CA64 (K. pneumoniae CA64; CA64) [µg/mL]	MIC P. aeruginosa CCUG 59347 (P. aeruginosa CCUG 59347; CCUG 59347) [µg/mL]	MIC A. baumannii ATCC BAA-747 [2] [µg/mL]	MIC A. baumannii NCTC 13424 (A. baumannii NCTC 13424) [µg/mL]	MIC E. coli CA58 (E. coli CA58; [3]) [µg/mL]	MIC K. pneumoniae CA64 (K. pneumoniae CA64; [3]) [µg/mL]	MIC P. aeruginosa CCUG 59347 (P. aeruginosa CCUG 59347; [3]) [µg/mL]	MIC E. coli ATCC 25922 (E. coli ATCC 25922) [µg/mL]	MIC K. pneumoniae ATCC 13822 (K. pneumoniae ATCC 13822) [µg/mL]	MIC P. aeruginosa ATCC 27853 (P. aeruginosa ATCC 27853; [3]) [µg/mL]	HK-2 rel to PMB (HK-2 cells; IC50 relative to PMB in the same experiment, 24 h)	tissue level at time at 4 h ([1]; mice, 17.2 mg/kg free base sc, 4 h, read-out: 4 hr kidney level) [ng/g]	tissue level at time at 4 h ([1]; sc, 17.2 mg/kg) [ng/g]	MIC P. aeruginosa ATCC 27853 (P. aeruginosa ATCC 27853; ATCC 27853) [µg/mL]
CC(C)C[C@@H]1NC(=O)[C@@H](Cc2ccccc2)NC(=O)[C@H](CCN)NC(=O)[C@@H](NC(=O)[C@H](CN)NC(=O)[C@@H](NC(=O)C[C@@H](CN)c2cccc(Cl)c2)[C@@H](C)O)CCNC(=O)[C@H]([C@@H](C)O)NC(=O)[C@H](CCN)NC(=O)[C@H](CCN)NC1=O [Example 6, (R)-4-amino-3-(3- chlorophenyl) butanoyl- Thr-Dap-Cyclo[Dab- Dab-DPhe-Leu-Dab- Dab-Thr]] (X7-T[Dap][Dab][Dab][dF]L[Dab][Dab]T; lactam 3-C)	7.8	49	8 (≈ 6.99 µM)	8 (≈ 6.99 µM)	0.5 (≈ 0.437 µM)	0.5 (≈ 0.437 µM)	0.5 (≈ 0.437 µM)	–	–	–	–	–	–	–	–	–	–
CC[C@@H]1NC(=O)[C@@H](CC(C)C)NC(=O)[C@H](CCN)NC(=O)[C@@H](NC(=O)[C@H](CN)NC(=O)[C@@H](NC(=O)C[C@H](CN)c2cccc(Br)c2)[C@@H](C)O)CCNC(=O)[C@H]([C@@H](C)O)NC(=O)[C@H](CCN)NC(=O)[C@H](CCN)NC1=O [Example 32, (S)-4-amino-3-(3- bromophenyl)butanoyl- Thr-Dap-Cyclo[Dab- Dab-DLeu-Abu-Dab- Dab-Thr]] (X19-T[Dap][Dab][Dab][dL][Abu][Dab][Dab]T; lactam 3-C)	–	–	–	–	–	–	–	32 (≈ 28.4 µM)	32 (≈ 28.4 µM)	0.5 (≈ 0.444 µM)	0.25 (≈ 0.222 µM)	0.5 (≈ 0.444 µM)	0.5 (≈ 0.444 µM)	–	–	–	–
CCCC[C@H]1NC(=O)[C@H](CCN)NC(=O)[C@@H](NC(=O)[C@H](CN)NC(=O)[C@@H](NC(=O)C[C@@H](CN)c2cc(Cl)cc(Cl)c2)[C@@H](C)O)CCNC(=O)[C@H]([C@@H](C)O)NC(=O)[C@H](CCN)NC(=O)[C@H](CCN)NC(=O)[C@H](CC)NC1=O [Example 29, (R)-4-amino-3-(3,5- dichlorophenyl)butanoyl- Thr-Dap- Cyclo[Dab-Dab- DnorLeu-Abu-Dab- Dab-Thr]] (X21-T[Dap][Dab][Dab][dNle][Abu][Dab][Dab]T; lactam 3-C)	–	–	–	–	–	–	–	16 (≈ 14.3 µM)	8 (≈ 7.16 µM)	0.5 (≈ 0.448 µM)	0.25 (≈ 0.224 µM)	0.25 (≈ 0.224 µM)	0.25 (≈ 0.224 µM)	–	–	–	–
CC[C@@H]1NC(=O)[C@@H](Cc2ccccc2)NC(=O)[C@H](CCN)NC(=O)[C@@H](NC(=O)[C@H](CN)NC(=O)[C@@H](NC(=O)C[C@@H](CN)c2cccc(C(C)C)c2)[C@@H](C)O)CCNC(=O)[C@H]([C@@H](C)O)NC(=O)[C@H](CCN)NC(=O)[C@H](CCN)NC1=O [Example 18] (X9-T[Dap][Dab][Dab][dF][Abu][Dab][Dab]T; lactam 3-C)	–	–	–	–	–	–	–	16 (≈ 14.2 µM)	8 (≈ 7.12 µM)	0.25 (≈ 0.222 µM)	0.25 (≈ 0.222 µM)	0.25 (≈ 0.222 µM)	0.25 (≈ 0.222 µM)	32.8	535000	–	–
CC(C)C[C@@H]1NC(=O)[C@@H](CC(C)C)NC(=O)[C@H](CCN)NC(=O)[C@@H](NC(=O)[C@H](CN)NC(=O)[C@@H](NC(=O)C[C@H](CN)c2cccc(C(C)C)c2)[C@@H](C)O)CCNC(=O)[C@H]([C@@H](C)O)NC(=O)[C@H](CCN)NC(=O)[C@H](CCN)NC1=O [Example 15, (S)-4-amino-3-(3- isopropylphenyl) butanoyl-Thr-Dap- Cyclo[Dab-Dab-DLeu- Leu-Dab-Dab-Thr]] (X3-T[Dap][Dab][Dab][dL]L[Dab][Dab]T; lactam 3-C)	52.1	–	4 (≈ 3.58 µM)	16 (≈ 14.3 µM)	0.5 (≈ 0.447 µM)	0.06 (≈ 0.0536 µM)	0.06 (≈ 0.0536 µM)	–	–	–	–	–	–	–	–	443000	0.25 (≈ 0.224 µM)
